Columns and labels:
Assay type in all cases: functional
[1] = Growth inhibition of human HCC2998 cells assessed as cell growth at 10^-8 M after 48 hrs by sulforhodamine B assay; details: HCC 2998, 48 h; for growth at 0.01 µM: read-out: Activity; for CC50: read-out: pLC50 (the source's name) (converted); for TGI: read-out: pTGI (converted)
[2] = test system: SN12C; experiment: Growth inhibition of human SN12C cells assessed as cell growth at 10^-8 M after 48 hrs by sulforhodamine B assay; details: for growth at 0.01 µM: read-out: Activity; for TGI: read-out: pTGI (converted)
[3] = test system: SK-MEL-2; experiment: Growth inhibition of human SK-MEL-2 cells assessed as cell growth at 10^-8 M after 48 hrs by sulforhodamine B assay; details: SK-MEL-2, 48 h; for growth at 0.01 µM: read-out: Activity; for TGI: read-out: pTGI (converted)
[4] = Growth inhibition of human HCT15 cells after 48 hrs by sulforhodamine B assay; details: HCT-15, 48 h; for CC50: read-out: LC50 (the source's name)
[5] = test system: IGROV-1; experiment: Growth inhibition of human IGROV1 cells assessed as cell growth at 10^-6 M after 48 hrs by sulforhodamine B assay; details: IGROV-1, 48 h, read-out: Activity
[6] = Growth inhibition of human HCT15 cells assessed as cell growth at 10^-4 M after 48 hrs by sulforhodamine B assay; details: HCT-15, 48 h, read-out: Activity
[7] = test system: IGROV-1; experiment: Growth inhibition of human IGROV1 cells assessed as cell growth at 10^-4 M after 48 hrs by sulforhodamine B assay; details: IGROV-1, 48 h, read-out: Activity
[8] = Growth inhibition of human LOXIMVI cells assessed as cell growth at 10^-8 M after 48 hrs by sulforhodamine B assay; details: LOX IMVI; for growth at 0.01 µM: read-out: Activity; for TGI: read-out: pTGI (converted)
[9] = Growth inhibition of human OVCAR5 cells assessed as cell growth at 10^-6 M after 48 hrs by sulforhodamine B assay; details: OVCAR-5, 48 h, read-out: Activity
[10] = test system: NCI-H226; experiment: Growth inhibition of human NCI-H226 cells assessed as cell growth at 10^-7 M after 48 hrs by sulforhodamine B assay; details: NCI-H226, 48 h, read-out: Activity
[11] = Growth inhibition of human HOP92 cells after 48 hrs by sulforhodamine B assay; details: HOP-92, 48 h; for CC50: read-out: LC50 (the source's name)
[12] = test system: SK-MEL-5; experiment: Growth inhibition of human SK-MEL-5 cells assessed as cell growth at 10^-4 M after 48 hrs by sulforhodamine B assay; details: SK-MEL-5, 48 h, read-out: Activity
[13] = test system: COLO 205; experiment: Growth inhibition of human COLO205 cells assessed as cell growth at 10^-6 M after 48 hrs by sulforhodamine B assay; details: COLO 205, 48 h, read-out: Activity
[14] = test system: SK-MEL-2; experiment: Growth inhibition of human SK-MEL-2 cells assessed as cell growth at 10^-7 M after 48 hrs by sulforhodamine B assay; details: SK-MEL-2, 48 h, read-out: Activity
[15] = test system: MDA-MB-468; experiment: Growth inhibition of human MDA-MB-468 cells assessed as cell growth at 10^-6 M after 48 hrs by sulforhodamine B assay; details: MDA-MB-468, 48 h, read-out: Activity
[16] = Growth inhibition of human SF295 cells assessed as cell growth at 10^-7 M after 48 hrs by sulforhodamine B assay; details: SF-295, 48 h, read-out: Activity
[17] = test system: 786-0; experiment: Growth inhibition of human 786-0 cells assessed as cell growth at 10^-8 M after 48 hrs by sulforhodamine B assay; details: 786-0, 48 h; for growth at 0.01 µM: read-out: Activity; for TGI: read-out: pTGI (converted)
[18] = Growth inhibition of human NCI-ADR-RES cells assessed as cell growth at 10^-7 M after 48 hrs by sulforhodamine B assay; details: read-out: Activity
[19] = test system: COLO 205; experiment: Induction of apoptosis in human COLO205 cells assessed as caspase 9 activation at 10 uM by FLICA
[20] = test system: A498; experiment: Growth inhibition of human A498 cells assessed as cell growth at 10^-8 M after 48 hrs by sulforhodamine B assay; details: A498, 48 h; for growth at 0.01 µM: read-out: Activity; for TGI: read-out: pTGI (converted)
[21] = Growth inhibition of human OVCAR5 cells assessed as cell growth at 10^-4 M after 48 hrs by sulforhodamine B assay; details: OVCAR-5, 48 h, read-out: Activity
[22] = test system: HL-60(TB); experiment: Growth inhibition of human HL-60(TB) cells after 48 hrs by sulforhodamine B assay; details: HL-60, 48 h; for CC50: read-out: LC50 (the source's name)
[23] = test system: A549; experiment: Growth inhibition of human A549/ATCC cells assessed as cell growth at 10^-8 M after 48 hrs by sulforhodamine B assay; details: A549, 48 h; for growth at 0.01 µM: read-out: Activity; for TGI: read-out: pTGI (converted)
[24] = Growth inhibition of human RXF393 cells assessed as cell growth at 10^-6 M after 48 hrs by sulforhodamine B assay; details: RXF 393, 48 h, read-out: Activity
[25] = test system: SNB-75; experiment: Growth inhibition of human SNB75 cells assessed as cell growth at 10^-4 M after 48 hrs by sulforhodamine B assay; details: SNB-75, 48 h, read-out: Activity
[26] = Growth inhibition of human OVCAR4 cells assessed as cell growth at 10^-4 M after 48 hrs by sulforhodamine B assay; details: OVCAR-4, 48 h, read-out: Activity
[27] = test system: NCI-H522; experiment: Growth inhibition of human NCI-H522 cells assessed as cell growth at 10^-6 M after 48 hrs by sulforhodamine B assay; details: NCI-H522, 48 h, read-out: Activity
[28] = test system: COLO 205; experiment: Growth inhibition of human COLO205 cells assessed as cell growth at 10^-8 M after 48 hrs by sulforhodamine B assay; details: COLO 205, 48 h; for growth at 0.01 µM: read-out: Activity; for TGI: read-out: pTGI (converted)
[29] = test system: SK-MEL-2; experiment: Growth inhibition of human SK-MEL-2 cells assessed as cell growth at 10^-4 M after 48 hrs by sulforhodamine B assay; details: SK-MEL-2, 48 h, read-out: Activity
[30] = test system: SNB-75; experiment: Growth inhibition of human SNB75 cells assessed as cell growth at 10^-6 M after 48 hrs by sulforhodamine B assay; details: SNB-75, 48 h, read-out: Activity
[31] = test system: HCT-116; experiment: Growth inhibition of human HCT116 cells assessed as cell growth at 10^-7 M after 48 hrs by sulforhodamine B assay; details: HCT-116, 48 h, read-out: Activity
[32] = Growth inhibition of human SF295 cells assessed as cell growth at 10^-8 M after 48 hrs by sulforhodamine B assay; details: SF-295, 48 h; for growth at 0.01 µM: read-out: Activity; for TGI: read-out: pTGI (converted)

O=C1/C(=C/c2ccc(Cl)cc2Cl)CN(S(=O)(=O)c2ccccc2)C/C1=C\c1ccc(Cl)cc1Cl
GI50 [1]: 380 nM | growth at 0.01 µM [1]: 102% | CC50 [1]: 4570 nM | TGI [1]: 1350 nM | GI50 [2]: 245 nM | LC50 [2]: > 100000 nM | growth at 0.01 µM [2]: 93% | TGI [2]: 724 nM | GI50 [3]: 6030 nM | LC50 [3]: > 100000 nM | growth at 0.01 µM [3]: 101% | TGI [3]: > 100000 nM | GI50 [4]: 247 nM | TGI [4]: 759 nM | CC50 [4]: > 100000 nM | growth at 1 µM [5]: -30% | growth at 100 µM [6]: -36% | growth at 100 µM [7]: -47% | GI50 [8]: 204 nM | growth at 0.01 µM [8]: 95% | TGI [8]: 513 nM | growth at 1 µM [9]: 80% | growth at 0.1 µM [10]: 97% | GI50 [11]: 1700 nM | TGI [11]: 5550 nM | CC50 [11]: > 100000 nM | growth at 100 µM [12]: 60% | growth at 1 µM [13]: 16% | growth at 0.1 µM [14]: 111% | growth at 1 µM [15]: 55% | growth at 0.1 µM [16]: 93% | GI50 [17]: 240 nM | LC50 [17]: 1700 nM | growth at 0.01 µM [17]: 101% | TGI [17]: 550 nM | growth at 0.1 µM [18]: 109% | Activity [19]: 22% | GI50 [20]: 724 nM | LC50 [20]: > 100000 nM | growth at 0.01 µM [20]: 67% | TGI [20]: 4370 nM | growth at 100 µM [21]: -2% | GI50 [22]: 562 nM | TGI [22]: 3970 nM | CC50 [22]: > 100000 nM | GI50 [23]: 275 nM | LC50 [23]: > 100000 nM | growth at 0.01 µM [23]: 93% | TGI [23]: 891 nM | growth at 1 µM [24]: 54% | growth at 100 µM [25]: -33% | growth at 100 µM [26]: 15% | growth at 1 µM [27]: 47% | GI50 [28]: 427 nM | LC50 [28]: > 100000 nM | growth at 0.01 µM [28]: 106% | TGI [28]: 2000 nM | growth at 100 µM [29]: 6% | growth at 1 µM [30]: 38% | growth at 0.1 µM [31]: 95% | GI50 [32]: 347 nM | LC50 [32]: > 100000 nM | growth at 0.01 µM [32]: 91% | TGI [32]: 6610 nM

Cc1ccc(S(=O)(=O)N2C/C(=C\c3cc(F)cc(F)c3)C(=O)/C(=C/c3cc(F)cc(F)c3)C2)cc1
GI50 [1]: 603 nM | growth at 0.01 µM [1]: 102% | CC50 [1]: 4900 nM | TGI [1]: 1910 nM | GI50 [2]: 339 nM | LC50 [2]: 4270 nM | growth at 0.01 µM [2]: 95% | TGI [2]: 1320 nM | GI50 [3]: 2000 nM | LC50 [3]: 14800 nM | growth at 0.01 µM [3]: 105% | TGI [3]: 4680 nM | GI50 [4]: 250 nM | TGI [4]: 1300 nM | CC50 [4]: 30700 nM | growth at 1 µM [5]: 18% | growth at 100 µM [6]: -65% | growth at 100 µM [7]: -80% | GI50 [8]: 174 nM | growth at 0.01 µM [8]: 97% | CC50 ([8]; read-out: pLC50 (the source's name) (converted)): 661 nM | TGI [8]: 339 nM | growth at 1 µM [9]: 51% | growth at 0.1 µM [10]: 94% | GI50 [11]: 1110 nM | TGI [11]: 3300 nM | CC50 [11]: 9780 nM | growth at 100 µM [12]: -97% | growth at 1 µM [13]: 35% | growth at 0.1 µM [14]: 112% | growth at 1 µM [15]: 22% | growth at 0.1 µM [16]: 92% | GI50 [17]: 589 nM | LC50 [17]: 4900 nM | growth at 0.01 µM [17]: 104% | TGI [17]: 1910 nM | growth at 0.1 µM [18]: 106% | Activity [19]: 40.5% | GI50 [20]: 1860 nM | LC50 [20]: 8710 nM | growth at 0.01 µM [20]: 96% | TGI [20]: 4070 nM | growth at 100 µM [21]: -90% | GI50 [22]: 289 nM | TGI [22]: 1740 nM | CC50 [22]: > 100000 nM | GI50 [23]: 2880 nM | LC50 [23]: > 100000 nM | growth at 0.01 µM [23]: 94% | TGI [23]: 14800 nM | growth at 1 µM [24]: 44% | growth at 100 µM [25]: -86% | growth at 100 µM [26]: -81% | growth at 1 µM [27]: -2% | GI50 [28]: 617 nM | LC50 [28]: 6170 nM | growth at 0.01 µM [28]: 107% | TGI [28]: 2090 nM | growth at 100 µM [29]: -77% | growth at 1 µM [30]: 82% | growth at 0.1 µM [31]: 89% | GI50 [32]: 468 nM | LC50 [32]: 15800 nM | growth at 0.01 µM [32]: 92% | TGI [32]: 2510 nM

— ChEMBL document CHEMBL3217615, “Novel 3,5-bis(arylidiene)-4-piperidone based monocarbonyl analogs of curcumin: anticancer activity evaluation and mode of action study” (2014)
